Patent US20070154449A1, “TIGHT JUNCTION MODULATING PEPTIDES FOR ENHANCED MUCOSAL DELIVERY OF THERAPEUTIC COMPOUNDS” (Nastech Pharmaceutical Company Inc., priority 2005, published 2007)

How the values were obtained:
[1] = test system: in vitro epithelial tissue model; experiment: Cell viability (MTT assay), in vitro epithelial tissue model; settings: galantamine lactate 40 mg/ml and PN159 at all concentrations tested (25, 50, 100 μM)
[2] = Chemical stability of PN159 in solution (stability indicating HPLC); type: physicochemical; settings: for loss of native PN159: 25° C.
Description: The chemical stability of the PN159 was determined under therapeutically relevant storage conditions. A stability indicating HPLC method was employed. Solutions (50 mM) were stored at various pH (4.0, 7.3, and 9.0) and temperature (5° C., 25° C., 35° C., 40° C., and 50° C.) conditions. Samples at pH 4 contained 10 mM citrate buffer. Samples at pH 7.3 and 9.0 contained 10 mM phosphate buffer. […] For example, at 5° C. and pH 4.0 or pH 7.3, there was essentially 100% recovery of PN159 for six month storage. […] The pH range of 4.0 to 7.3 and the temperature range of refrigerated to ambient are most relevant for intranasal formulations.

[3] = Intranasal PYY(3-36) pharmacokinetics in rabbits with various TJMPs (Example 10); type: in vivo, New Zealand White rabbits; settings: rabbit
Source text: The tubes were chilled until […].

[4] = test system: human-derived tracheal/bronchial epithelial cells (EpiAirway™ Tissue model system); experiment: Transepithelial electrical resistance (TER), EpiAirway tissue model; type: cell-based
Description: EpiAirway™ culture membranes were received the day before the experiments started. They are shipped in phenol red-free and hydrocortisone-free Dulbecco's Modified Eagle's Medium (DMEM). The cells are ciliated and psudostratefied, grown to confluency on Millipore Multiscreen Caco-2 96-well assay system comprised of a polycarbonate filter system. Upon receipt, the insert system will be stored unopened at 4° C. and/or cultured in 250 μl basal media per well (phenol red-free and hydrocortisone-free Dulbecco's Modified Eagle's Medium (DMEM)) at 37° C./5% CO2 for 24 hours before use.
TER measurements were taken using the REMS Autosampler (World Precision Instruments, Sarasota, Fla.) with the electrode leads. The electrodes and a tissue culture blank insert will be equilibrated for at least 20 minutes in MatTek Air-100™ medium with the power off prior to checking calibration. The background resistance of the insert system has been established by multiple measurements of a blank insert plate and the same value was used for each test on the platform. Time zero TER (TER0) was measured before incubation of the inserts with the test formulation. The top electrode will be as adjusted so that it is close to, but not making contact with, the top surface of the insert membrane. Background resistance of the blank insert should be about 5-20 ohms. For each TER determination, 100 μl of MatTek Air-100™ medium was added to the insert and 250 μl in the basal well followed by placement in the Endohm chamber. All TER values are reported as a function of the surface area of the tissue. Resistance was expressed as both Ohms*cm^2 and percent original TER value.
TER values were calculated as: [formula] [formula] Formula terms for TER calculation defined: […]
A decrease in TER value relative to the control value indicates a decrease in cell membrane resistance and an increase in mucosal epithelial cell permeability.
Of the total 300 μl volume for each test formulation, only a 20 μl sample was applied to the human-derived tracheal/bronchial epithelial cells (EpiAirway™ Tissue model system) in order to assess the effect each test formulation had on TER, LDH and sample permeation.

[5] = Intranasal PYY pharmacokinetics in rabbits with PN159 or small molecule enhancers (Example 5); type: in vivo, New Zealand White rabbits; settings: for PYY plasma concentration: mean of 4 rabbits; for AUCINF (Mean) / AUClast (Mean) / Cmax (Mean) / Tmax (Mean) / t½ (Mean): PYY in plasma, rabbit; for Relative AUC last / Relative Cmax: PYY, rabbit intranasal
Description: Twenty male New Zealand White rabbits age 3-6 months and weighing 2.1-3.0 kg were randomly assigned into one of 5 treatment groups with four animals per group. Test animals were dosed at 15 μl/kg and intranasally via pipette. Table 6 below indicates the composition of five different dose groups.
For dosing group 1 (see Table 6) a clinical formulation of PYY including small molecule permeation enhancers was used. The small molecule enhancers in these studies included methyl-β-cyclodextrin, phosphatidylcholine didecanoyl (DDPC), and/or EDTA. Dosing group 2 received PYY dissolved in phosphate buffered saline (PBS). For dosing groups 3-5, various concentrations of PN159 were added to dosing group 2, so that each of dosing groups 3 to 5 consisted of PYY, PN159, and PBS.
Serial blood samples (about 2 ml each) were collected by direct venipuncture from a marginal ear vein into blood collection tubes containing EDTA as an anticoagulant. Blood samples were collected at 0, 2.5, 5, 10, 15, 30, 45, 60, and 120 minutes post-dosing. After collection of the blood, the tubes were gently rocked several times for anti-coagulation, and then 50 μl aprotinin solution was added. The blood was centrifuged at approximately 1,600×g for 15 minutes at approximately 4° C., and plasma samples were dispensed into duplicate aliquots and stored frozen at approximately −70° C.

[6] = PYY(3-36) in plasma, 205 μg/kg intranasal with the named TJMP (concentration per Table 11, 50-1000 μM) or PBS, mean
[7] = Group 3: PYY 205 μg/kg intranasal with 25 μM PN159
[8] = Group 4: PYY 205 μg/kg intranasal with 50 μM PN159
[9] = Group 5: PYY 205 μg/kg intranasal with 100 μM PN159
[10] = Group 3 (PN159, 25 μm) compared with Group 2 (no enhancer)
[11] = Group 4 (PN159, 50 μm) compared with Group 2 (no enhancer)
[12] = Group 5 (PN159, 100 μm) compared with Group 2 (no enhancer)

Compound: CC(C)C[C@H](NC(=O)[C@H](C)NC(=O)[C@H](CCCCN)NC(=O)[C@H](CC(C)C)NC(=O)[C@H](C)NC(=O)[C@H](CC(C)C)NC(=O)[C@H](CCCCN)NC(=O)[C@H](CC(C)C)NC(=O)[C@H](C)NC(=O)[C@H](CC(C)C)NC(=O)[C@@H](N)CCCCN)C(=O)N[C@@H](CCCCN)C(=O)N[C@@H](C)C(=O)N[C@@H](C)C(=O)N[C@@H](CC(C)C)C(=O)N[C@@H](CCCCN)C(=O)N[C@@H](CC(C)C)C(=O)N[C@@H](C)C(N)=O [PN159]
- Cell viability (MTT) [1]: > 80%
- loss of native PN159 ([2]; pH 4, after six months): 7%
- loss of native PN159 ([2]; pH 7, after six months): 26%
- chemical stability of PN159 ([2]; pH 9 and/or elevated temperature, e.g., 40 to 50° C.): rapid deterioration
- In Vivo Tier Ranking ([3]; PYY(3-36) 205 μg/kg intranasal, TJMP concentration per Table 11: PN159 50 μM, PN161, PN202 100 μM, PN27 250 μM, PN58, PN73, PN228 500 μM, PN183, PN556 1000 μM): I
- AUCinf [3, 6]: 1.55e+06 pg·min/mL
- AUClast [3, 6]: 1.52e+06 pg·min/mL
- Cmax [3, 6]: 30.2 ng/mL
- T1/2 [3, 6]: 30.2 min
- Tmax [3, 6]: 17.0a min
- % T0 TER ([4]; 25 μM peptide, pH 7, 20 μl applied): 7%
- TER in the presence of galantamine ([4]; 25, 50, 100 μM PN159 with 40 mg/ml galantamine lactate, pH 5.0): reduced TER
- PYY plasma concentration ([5]; Group 3: PYY 205 μg/kg intranasal with 25 μM PN159, 0 min): 228.675
- PYY plasma concentration ([5]; Group 3: PYY 205 μg/kg intranasal with 25 μM PN159, 2.5 min): 526.375
- PYY plasma concentration ([5]; Group 3: PYY 205 μg/kg intranasal with 25 μM PN159, 5 min): 1430.15
- PYY plasma concentration ([5]; Group 3: PYY 205 μg/kg intranasal with 25 μM PN159, 10 min): 6521.7
- PYY plasma concentration ([5]; Group 3: PYY 205 μg/kg intranasal with 25 μM PN159, 15 min): 12563.075
- PYY plasma concentration ([5]; Group 3: PYY 205 μg/kg intranasal with 25 μM PN159, 30 min): 15222.6
- PYY plasma concentration ([5]; Group 3: PYY 205 μg/kg intranasal with 25 μM PN159, 45 min): 9081.125
- PYY plasma concentration ([5]; Group 3: PYY 205 μg/kg intranasal with 25 μM PN159, 60 min): 4843.15
- PYY plasma concentration ([5]; Group 3: PYY 205 μg/kg intranasal with 25 μM PN159, 120 min): 1224.2
- PYY plasma concentration ([5]; Group 4: PYY 205 μg/kg intranasal with 50 μM PN159, 0 min): 424.4
- PYY plasma concentration ([5]; Group 4: PYY 205 μg/kg intranasal with 50 μM PN159, 2.5 min): 749.975
- PYY plasma concentration ([5]; Group 4: PYY 205 μg/kg intranasal with 50 μM PN159, 5 min): 1293.4
- PYY plasma concentration ([5]; Group 4: PYY 205 μg/kg intranasal with 50 μM PN159, 10 min): 12517.2
- PYY plasma concentration ([5]; Group 4: PYY 205 μg/kg intranasal with 50 μM PN159, 15 min): 34455.3
- PYY plasma concentration ([5]; Group 4: PYY 205 μg/kg intranasal with 50 μM PN159, 30 min): 35294.375
- PYY plasma concentration ([5]; Group 4: PYY 205 μg/kg intranasal with 50 μM PN159, 45 min): 21582.225
- PYY plasma concentration ([5]; Group 4: PYY 205 μg/kg intranasal with 50 μM PN159, 60 min): 9461.925
- PYY plasma concentration ([5]; Group 4: PYY 205 μg/kg intranasal with 50 μM PN159, 120 min): 2337.775
- PYY plasma concentration ([5]; Group 5: PYY 205 μg/kg intranasal with 100 μM PN159, 0 min): 294.225
- PYY plasma concentration ([5]; Group 5: PYY 205 μg/kg intranasal with 100 μM PN159, 2.5 min): 1748.225
- PYY plasma concentration ([5]; Group 5: PYY 205 μg/kg intranasal with 100 μM PN159, 5 min): 3088.2
- PYY plasma concentration ([5]; Group 5: PYY 205 μg/kg intranasal with 100 μM PN159, 10 min): 14486.6
- PYY plasma concentration ([5]; Group 5: PYY 205 μg/kg intranasal with 100 μM PN159, 15 min): 20882.725
- PYY plasma concentration ([5]; Group 5: PYY 205 μg/kg intranasal with 100 μM PN159, 30 min): 25470.475
- PYY plasma concentration ([5]; Group 5: PYY 205 μg/kg intranasal with 100 μM PN159, 45 min): 16499.55
- PYY plasma concentration ([5]; Group 5: PYY 205 μg/kg intranasal with 100 μM PN159, 60 min): 10676.625
- PYY plasma concentration ([5]; Group 5: PYY 205 μg/kg intranasal with 100 μM PN159, 120 min): 1891.275
- AUCINF (Mean) [5, 7]: 796354.7 pg·min/mL
- AUClast (Mean) [5, 7]: 748104.1 pg·min/mL
- Cmax (Mean) [5, 7]: 15.53395 ng/mL
- Tmax (Mean) [5, 7]: 22.5 min
- t½ (Mean) [5, 7]: 24.8467 min
- AUCINF (Mean) [5, 8]: 1787348 pg·min/mL
- AUClast (Mean) [5, 8]: 1692499 pg·min/mL
- Cmax (Mean) [5, 8]: 40.99553 ng/mL
- Tmax (Mean) [5, 8]: 26.25 min
- t½ (Mean) [5, 8]: 25.5355 min
- AUCINF (Mean) [5, 9]: 1518949 pg·min/mL
- AUClast (Mean) [5, 9]: 1384241 pg·min/mL
- Cmax (Mean) [5, 9]: 27.9744 ng/mL
- Tmax (Mean) [5, 9]: 33.75 min
- t½ (Mean) [5, 9]: 20.4628 min
- Relative AUC last [5, 10]: 21×
- Relative Cmax [5, 10]: 30×
- Relative AUC last [5, 11]: 46×
- Relative Cmax [5, 11]: 79×
- Relative AUC last [5, 12]: 38×
- Relative Cmax [5, 12]: 54×
